This note sets out measurements from patent publication US20100168112A1, “2-Substituted and 4-substituted aryl nitrone compounds” (RENOVIS, INC., priority 2004, published 2010).

For orientation: Cmax means the highest concentration seen after dosing. What is called Tmax is the time at which the peak concentration occurs. As a reminder, the bioavailability is dose-corrected exposure relative to a reference, in per cent.

Each structure is given as a SMILES string.

A short description of series [1]: Pharmacokinetic evaluation following intravenous and oral administration in rats. Type of series: in vivo. The note with it: male, Sprague-Dawley; for Cmax / Tmax / bioavailability: 5 mg/kg; for Cmax: rat plasma; for Cmax / Tmax: oral gavage, 2 mg/mL at 2.5 mL/kg; for clearance / Vd / Tmax / bioavailability / half-life: plasma, rat; for clearance / Vd / half-life: 1 mg/kg; for clearance / Vd: intravenous administration, 1 mg/mL at 1.0 mL/kg; for clearance: read-out: CI (clearance) (converted); for Vd: read-out: Vd (volume of distribution); for bioavailability: po 2 mg/mL at 2.5 mL/kg vs iv 1 mg/mL at 1.0 mL/kg, dose-normalized, read-out: F (%) oral bioavailability; for half-life: intravenous, read-out: T1/2 elimination half life (converted). As for the experimental part: Male Sprague-Dawley rats were given at least 24 hours acclimation before experiment initiation. During acclimation period, all animals received food and water ad libitum. However, food (not water) was removed from the animal's cages up to 12 hours before initiation of the experiment. During the first 4 hours of experimentation, the animals received only water ad libitum. Two to three animals for iv and three animals for oral administration were tested. For iv formulation nitrone compounds of this invention were dissolved (1 mg/mL) in a mixture of 5% dimethyl acetamide (v/v), 0 to 4% Tween 80 (v/v), 10 to 40% PEG 400 (v/v) and the rest percentage of water (v/v). For oral formulation nitrone compounds of this invention were dissolved (2 mg/mL) in a mixture of 4% of 10% Tween in water and 96% of 0.5% carboxymethyl cellulose (medium viscosity) in water; or 4% of 10% Tween in water, 48% of 0.5% carboxymethyl cellulose (medium viscosity) in water, and 48% of 0.5% Hydroxypropyl Methylcellulose/0.2% Sodium Lauryl Sulfate in water. These formulations were stored at 5° C. until the experiment. Formulations were then stir-mixed at least half an hour before dosing. Exactly 200 μL of each left-over formulation was diluted with CH3CN/H2O for concentration analysis. The animals were weighed before dosing. The body weight was used to calculate the true dose for each animal:
IV dosing: • Dose volume (mL)=1.0 mL/kg The intravenous dose was administered through the jugular vein catheter or tail vein in less than 1 minute.
PO dosing: • Dose volume (mL)=2.5 mL/kg The oral dose was administered by oral gavage.
For IV dosing, blood samples were collected (using a pre-heparinized syringe) via the carotid artery or jugular vein catheter at t=2, 5, 15, 30, 60, 120, 180, 360, and 480 minutes post dosing. For PO dosing, blood samples were collected (using a pre-heparinized syringe) via the carotid artery or jugular vein catheter before dosing and at t=5, 15, 30, 60, 120, 180, 360, and 480 minutes post dosing. For some nitrone compounds a 1440 minutes (24 hours) sample was also taken for both IV and PO administrations. About 250 μL of blood was obtained at each time point from the animals. Equal volumes of 0.9% normal saline were replaced to prevent dehydration. The whole blood samples were maintained on ice until centrifugation. Blood samples were then centrifuged at 14,000 rpm for 10 minutes at 4° C. and the upper plasma layer transferred into a clean vial and stored at −80° C. The resulting plasma samples were then analyzed by mass spectroscopy using standard methods.
All the samples from above assays were analyzed on a PE-Sciex API 3000 triple quadrupole with a Turbo Ion Spray source. Nitrone compounds of this invention were separated from the matrix via a linear gradient reverse-phase chromatography using a C18 column, such as Thermo BDS Hypersil C18 (100×4.6 mm, 5 micron particle, 120A pore size). The mobile Phases were:
Nitrone compounds were detected by the mass spectrometer in the positive ion multiple reaction monitoring mode (MRM). For quantitative analysis, a standard curve was prepared by spiking a stock solution of the nitrone compound to the appropriate matrix to achieve a quantitation curve range and analyzed the standards in the same manner as the samples.
Pharmacokinetic parameters of the aryl nitrone compounds were determined by a noncompartmental analysis using WinNonlin-Pro (Version 4.1, Pharsight Corporation). Average and standard deviation of the parameters were calculated using standard formulas in Microsoft Excel.

Series [2] is described as follows: DPPH free radical-scavenging/antioxidant assay. The series is classed as biochemical. Particulars: 50 μM DPPH in 80% methanol; 24 h time point; read-out: EC50 (concentration at which a compound reduces by 50% the peak absorbance of DPPH at 520 nm). Here is the method:
Nitrone compounds of the present invention were tested for their free-radical scavenging/antioxidant activity in an in vitro assay that is accepted by those skilled in the art as a model for conditions involving the generation of free radicals. The assay is based on a reaction between a free-radical donor, 2,2-diphenyl-1-picrylhydrazyl (DPPH), and a radical scavenger/antioxidant to be tested for free-radical scavenging activity. Upon donation of the free-radical electron to the purported radical scavenger, the peak visible absorbance of DPPH (515-520 nm) decreases so that optical density readings at this part of the visual spectrum reflect the progression of the following reaction:
where AH is a hypothetical radical scavenger/antioxidant. The assay is based on a protocol originally detailed in Brand-Williams, W. et al., 1995, Use of a Free Radical Method to Evaluate Antioxidant Activity, Lebensm. Wiss. Technol., 28:25-30, with further modifications described in L. R. Fukumoto and G. Mazza, 2000, Assessing Antioxidant and Prooxidant Activities of Phenolic Compounds, J. Agric. Food Chem., 48:3597-3604.
The antioxidant assay was performed using Perkin-Elmer 96-well, clear-bottom, black-wall plates (ordered from E & K Scientific Products) and a Tecan Safire absorbance plate reader. The positive controls were Trolox (6-hydroxy-2,5,7,8-tetramethylchromane-2-carboxylic acid, Sigma-Aldrich), BHA (2(3)-tert-butylhydroquinone monomethyl ether, Sigma-Aldrich), PBN (C-(phenyl)-N-(tert-butyl)nitrone, Sigma-Aldrich) and S-PBN (C-(2-sulfophenyl)-N-(tert-butyl)nitrone, sodium salt, prepared according to E. G. Janzen and R. V. Shetty, 1979, Tetrahedron Lett., 35: 3229-32), and the negative control (i.e., vehicle) was DMSO. In brief, 2 μL of 100× DMSO stock of the desired final concentration of each control or nitrone compound to be tested in the same batch was added to a separate well. To each well was then added 198 μL of a freshly made 50 μM DPPH (Sigma-Aldrich) solution in 80% methanol using a multi-channel pipette. The absorbance was immediately read on the plate reader at 520 nm and thereafter read periodically to assess kinetics until all reactions reached completion (i.e., steady state). Since the steady-state point was 24 h, the assay results are shown from the 24 h time point. The absorbance at 520 nm (OD) was plotted versus the concentrations of the controls and nitrone compounds to assess dose-response and interpolate the EC50 values of the controls and test compounds.

Series [3] in a line: Microsomal stability in human liver microsomes. The note with it: NADPH, 37° C. Type of series: in vitro ADME. Here is the method:
Frozen Sprague-Dawley rat liver microsomes (RLM) were thawed on ice and gently mixed before use. The final reaction mixture consisted of a nitrone compound of this invention (at ˜500 ng/ml), 1 mM NADPH, and 0.5 mg/ml of RLM protein in 0.1 M PBS (pH7.4), with organic solvent concentration not exceeding 1% (v/v). Per set of incubations, a positive control compound was included. The mixture was first pre-incubated 3 to 5 minutes at 37° C. without NADPH, and the reaction was then initialized by the addition of NADPH and incubated at 37° C. for up to 30 minutes. An aliquot of the reaction mixture was sampled at the initiation of the reaction and at designated time after reaction started. The drawn samples were quenched with acetonitrile, diluted with mobile phase to ensure the detection of test article in the linear range, and analyzed by LC/MS/MS. Half-life or percentage of remaining nitrone compound was calculated using standard methods. A similar method, or a slight variation of it, was used to test the stability of nitrones in human liver microsomes (HLM).
In general terms: Liver microsomes are a subcellular fraction often used to study metabolism.

With `CC(C)(C)/[N+]([O-])=C/c1ccc(S(=O)(=O)N2CCCCC2)cc1` [Compound 28, N-(tert-Butyl)-C-[4-(piperidine-1-sulfonyl)phenyl]nitrone], in series [1], the highest concentration (Cmax) is 134 ng/mL, the clearance is 19 mL/min/kg, the Vd was 19.9 L/kg and the Tmax is 64.8 min. In series [1], the bioavailability was found to be 13.8% and the half-life is 782 min. Also, the EC50 in series [2] is more than 1 mM.

Regarding `CC(C)(C)/[N+]([O-])=C/c1ccc(S(=O)(=O)N2CCCC2)cc1` [Compound 29, N-(tert-Butyl)-C-[4-(pyrrolidine-1-sulfonyl)phenyl]nitrone], in series [1], the concentration peaked (Cmax) at 114 ng/mL, the clearance was 38 mL/min/kg, the Vd was 0.97 L/kg and the Tmax came to 11.4 min. In series [1], the bioavailability stood at 4.3% and the half-life was 17.4 min. Further, the EC50 in series [2] was more than 1 mM.

For the compound `CNS(=O)(=O)c1ccccc1/C=[N+](\[O-])C(C)(C)C` [Compound 47, N-tert-Butyl-C-(2-methylsulfamoyl-phenyl)nitrone], in series [3], the “% of Nitrone Remaining at 30 min (Human)” value stood at 100%. Further, in series [2], the EC50 was more than 1 mM.

Take `CC(C)(C)/[N+]([O-])=C/c1ccccc1S(=O)(=O)NCc1ccccc1` [Compound 49, N-tert-Butyl-C-(2-benzylsulfamoyl-phenyl)nitrone]: the “% of Nitrone Remaining at 30 min (Human)” value in series [3] came out at 0%. Further, in series [2], the EC50 is more than 1 mM.

As for `CCN(CC)S(=O)(=O)c1ccc(/C=[N+](\[O-])C(C)(C)C)cc1` [Compound 50, N-tert-Butyl-C-(4-diethylsulfamoylphenyl)nitrone], the “% of Nitrone Remaining at 30 min (Human)” value in series [3] is recorded as 86%. Further, the EC50 in series [2] was more than 1 mM.

As to `CCN(CC)S(=O)(=O)c1ccc(/C=[N+](\[O-])C(C)C)cc1` [Compound 51, N-Isopropyl-C-(4-diethylsulfamoylphenyl)nitrone], the “% of Nitrone Remaining at 30 min (Human)” value in series [3] turned out to be 94%. For the same compound, the EC50 in series [2] was more than 1 mM.

On to `CCN(CC)S(=O)(=O)c1ccc(/C=[N+](\[O-])C2CCCCC2)cc1` [Compound 52, N-Cyclohexyl-C-(4-diethylsulfamoylphenyl)nitrone], for which the “% of Nitrone Remaining at 30 min (Human)” value in series [3] is on record as 64%.

Turning to `CCN(CC)S(=O)(=O)c1ccc(/C=[N+](\[O-])Cc2ccccc2)cc1` [Compound 53, N-Benzyl-C-(4-diethylsulfamoylphenyl)nitrone], the “% of Nitrone Remaining at 30 min (Human)” value in series [3] is on record as 65%.

Take `CC(C)/[N+]([O-])=C/c1ccc(S(=O)(=O)N(C)c2ccccc2)cc1` [Compound 55, N-Isopropyl-C-[4-(methyl-phenyl-sulfamoyl)phenyl]nitrone]: the “% of Nitrone Remaining at 30 min (Human)” value in series [3] is 82%.

Regarding `CN(c1ccccc1)S(=O)(=O)c1ccc(/C=[N+](\[O-])C2CCCCC2)cc1` [Compound 56, N-Cyclohexyl-C-[4-(methyl-phenyl-sulfamoyl)phenyl]nitrone], the “% of Nitrone Remaining at 30 min (Human)” value in series [3] is reported as 33%. Moreover, in series [2], the EC50 was more than 1 mM.

In the case of `CN(c1ccccc1)S(=O)(=O)c1ccc(/C=[N+](\[O-])Cc2ccccc2)cc1` [Compound 57, N-Benzyl-C-[4-(methyl-phenyl-sulfamoyl)phenyl]nitrone], the “% of Nitrone Remaining at 30 min (Human)” value in series [3] came out at 14%. For the same compound, the EC50 in series [2] is more than 1 mM.

`CC(C)(C)NS(=O)(=O)c1ccc(/C=[N+](\[O-])C(C)(C)C)cc1` [Compound 58, N-tert-Butyl-C[4-(tert-butylsulfamoyl)phenyl]nitrone]: in series [3], the “% of Nitrone Remaining at 30 min (Human)” value is on record as 100%. In addition, the EC50 in series [2] was more than 1 mM.

With `CC(C)/[N+]([O-])=C/c1ccc(S(=O)(=O)NC(C)(C)C)cc1` [Compound 59, N-Isopropyl-C-[4-(tert-butylsulfamoyl)phenyl]nitrone], in series [3], the “% of Nitrone Remaining at 30 min (Human)” value stood at 100%. In addition, the EC50 in series [2] was more than 1 mM.

With `CC(C)(C)NS(=O)(=O)c1ccc(/C=[N+](\[O-])Cc2ccccc2)cc1` [Compound 61, N-Benzyl-C-[4-(tert-butylsulfamoyl)phenyl]nitrone], the “% of Nitrone Remaining at 30 min (Human)” value in series [3] is on record as 95%. For the same compound, in series [2], the EC50 is more than 1 mM.

Take `CC(C)(C)/[N+]([O-])=C/c1ccc(S(C)(=O)=O)nc1` [Compound 80, N-tert-Butyl-C-(6-methanesulfonyl-pyridine-3-yl)nitrone]: in series [1], the highest concentration (Cmax) was found to be 3940 ng/mL, the clearance is 3.5 mL/min/kg, the Vd was 0.52 L/kg and the Tmax was 30 min. In addition, in series [1], the bioavailability worked out at 54.7% and the half-life was 103 min. Also, the “% of Nitrone Remaining at 30 min (Human)” value in series [3] is listed as 94.5%.

With `CS(=O)(=O)c1ccc(/C=[N+](\[O-])Cc2ccccc2)cn1` [Compound 81, N-Benzyl-C-(6-methanesulfonyl-pyridine-3-yl)nitrone], the “% of Nitrone Remaining at 30 min (Human)” value in series [3] was found to be 90.5%.
